One data set relates to AMPA/kainate receptors. The experiment in a line: Inhibition of synaptic field potentials (population spikes) in rat hippocampal slices. The format is cell-based. As to conditions: population spikes in CA1, after 30 min. perfusion. The procedure:
Synaptic potentials in the CA1 area of hippocampus evoked by stimulation of the Schaffer collaterals are mediated by AMPA/kainate receptors. […] Lett. 92, 64 (1988)].
The inhibition of population spikes in CA1 was studied in rat hippocampal slices after 30 min. perfusion application of the test compounds.

Data set [1] can be described thus: AMPA induced spreading depression in isolated chicken retina. The format is cell-based. As to conditions: AMPA (5 μM). How it is done: (§1) Anti-kainate and -AMPA effects were investigated in the in vitro retinal spreading depression model [Brain Res. 607, 189 (1993)]. AMPA/kainate antagonists prolong the latency of the development of spreading depression evoked. by kainate (5 μM), or AMPA (5 μM). In some cases the effect on spreading depression evoked by 100 μM NMDA was also studied to clarify the selectivity.

Data set [2] can be described thus: Kainate induced spreading depression in isolated chicken retina. The format is cell-based. To be noted: kainate (5 μM). How it is done: as §1
Data set [3] deals with male CFLP mice. Description: Anticonvulsive effect in mice, electroshock test. The data set is classed as in vivo. To be noted: Mus musculus, po, read-out: ED50 p.o., ES (electroshock). How it is done: (§2) The anticonvulsive effect of the compounds of the formula (I) was measured by using the electroshock test [J. Pharmacol. Exp. Ther. 106, 319 (1952)], furthermore by using various chemical agents such as pentetrazole [J. Pharmacol. Exp. Ther. 108, 168 (1953)], strychnine [J. Pharmacol. Exp. Ther. 129, 75 (1960)], bemegride, nicotine and 4-aminopyridine. The test compounds were orally administered in 3 doses, to 10 male CFLP mice per dose.

Data set [4] relates to male CFLP mice. The experiment in a line: Anticonvulsive effect in mice, pentetrazole. The format is in vivo. As to conditions: Mus musculus, po, read-out: ED50 p.o., Pentetrazole. The procedure: as §2
The test system of a further data set is CFLP mice. Description: Inclined screen test in mice. The data set is classed as in vivo. As to conditions: Mus musculus, ip, read-out: ED50 i.p., inclined screen test. From the text: In Randall's inclined screen test [J. Pharmacol. Exp. Ther. 129, 163 (1960)] the compounds were applied in 3 i.p. doses to 10 CFLP mice per dose.
Data set [5] has as its system mice. Description: Rotarod test in mice. To be noted: Mus musculus, ip, read-out: ED50 i.p., rotarod test. The format is in vivo. An excerpt: The rotarod test was used to measure muscular tone and motor co-ordination [J. Am. Pharm. Assoc. 46, 208 (1957)].
In data set [6] the test system is cats. Description: Effect on spinal (polysynaptic) flexor reflexes in chloralose anaesthetized cats. To be noted: Felis catus, iv. The data set is classed as in vivo. From the text:
Res. Comm. 20, S1, 141 (1988)].

Another data set is described as follows: Acute toxicity in mice. As to conditions: mouse, in vivo. The procedure: The cause of mortality was respiratory insufficiency developing within 1 to 2 hours after i.p. administration and within 10 to 20 hours after oral application.
The test system of data set [7] is mice. Description: Protection against methamphetamine-induced dopaminergic neurotoxicity, in mice. The data set is classed as in vivo. To be noted: METH 2×20 mg/kg i.p., Example 128 3×5 mg/kg i.p., MK-801 3×2.5 mg/kg i.p. The procedure:
High doses of methamphetamine (2×20 mg/kg i.p.) decrease the striatal level of dopamine, which can be prevented by glutamate antagonists, e.g. the NMDA-antagonist MK-801 [Science 243, 398 (1989)].

The test system of another data set is AMPA receptors. Description: Inhibition of synaptic field potentials in rat neocortex slices. The format is cell-based. From the text: Similarly as in hippocampal CA1 area, glutamate is the main excitatory transmitter in the neocortex, and dominantly AMPA receptors are involved in mediation of synaptic responses evoked by stimulation of the white matter and recorded from the area adjacent to the site of stimulation [J. Neurophysiol. 64, 1282 (1990)]. The inhibitory effect on such field potentials was studied in rat neocortex slices, maintained in Vitro, according to Fletcher et al. [Br. J. Pharmacol. 95, 585 (1988)].

The next data set concerns AMPA receptor. Description: Inhibition of quisqualate induced DC potentials in rat neocortex slices. The data set is classed as cell-based. How it is done:
The AMPA antagonist effect was tested in rat neocortex slices by using a method similar to that of Harrison and Simmonds [Br. J. Pharmacol. 84, 381 (1985)].

Data set [8] deals with NMDA. The experiment in a line: NMDA induced responses (DC potentials) in rat neocortex slices. The data set is classed as cell-based.
Data set [9] deals with male CFLP mice. The experiment in a line: Anticonvulsive effect in mice, strychnine. The format is in vivo. To be noted: Mus musculus, po, read-out: ED50 p.o., Strychnine. The procedure:
as §2

Data set [10] has as its system male CFLP mice. The experiment in a line: Anticonvulsive effect in mice, bemegride. The format is in vivo. As to conditions: Mus musculus, po, read-out: ED50 p.o., Bemegride. How it is done:
as §2

Data set [11] relates to male CFLP mice. The experiment in a line: Anticonvulsive effect in mice, nicotine. The data set is classed as in vivo. As to conditions: Mus musculus, po. The procedure:
as §2

The subject of data set [12] is male CFLP mice. Description: Anticonvulsive effect in mice, 4-aminopyridine. The format is in vivo. To be noted: Mus musculus, po, read-out: ED50 p.o., 4-AP (4-aminopyridine). The procedure:
as §2

Data set [13] deals with cats. Description: Effects on spinal root reflex potentials in spinalized and immobilized cats. The data set is classed as in vivo. To be noted: Felis catus, iv. The procedure:
The effect of compound of Example 15(16) on the spinal root potentials in cats was tested in spinalized and immobilized animals [Neuropharmacology 21, 161 (1989)].

For data set [14], the system named is NMDA. The experiment in a line: NMDA evoked spreading depression in isolated chicken retina. The format is cell-based. As to conditions: spreading depression evoked by 100 μM NMDA. The procedure: as §1
Data set [15] has as its system [^3 H]-AMPA specific binding sites in CNS membrane preparations. To be noted: Neuroreport 5, 93 (1993); cited from earlier work.
The subject of data set [16] is [^3 H]-kainate specific binding sites in CNS membrane preparations. As to conditions: Neuroreport 5, 93 (1993); cited from earlier work.
Setting [17] is: * <20% inhibition at the highest dose applied, read-out: ED50, DRP (dorsal root potential).
Where [18] appears, read: * <20% inhibition at the highest dose applied, read-out: ED50, DRR (dorsal root reflex).
The mark [19] stands for this setting: read-out: ED50, MSR (monosynaptic ventral root reflex).
Where [20] appears, read: read-out: ED50, PSR (polysynaptic ventral root reflex).

Here are results for four compounds from patent publication US5639751A, “N-acyl-2,3-benzodiazepine derivatives for treating acute and chronic neurodegenerative disorders” (priority 1990, dated 1997).

Read-outs that look alike come from different tables or passages of the source.

The term IC50 denotes the concentration that gives 50% inhibition. Usually ED50 stands for the dose that gives a 50% effect, or the effect in half of the subjects. In general, LD50 refers to the dose at which mortality reaches 50%. For the compound `CNC(=O)N1N=C(c2ccc(N)cc2)c2cc3c(cc2CC1C)OCO3` (single isomer, unassigned; (-)) [Example 123, (-)-1-(4-Aminophenyl)-3-methylcarbamoyl-4-methyl-7,8-methylenedioxy-3,4-dihydro-5H-2,3 benzodiazepine], the figures for the IC50 (in the data set with AMPA/kainate receptors; in [1]; in data set [2]) were 3.9 µM, 1.7 µM and 0.5 µM, respectively. Moreover, the median effective dose (ED50) in the data set with male CFLP mice [3] was 8.4 mg/kg; in the data set with male CFLP mice [4], 13.8 mg/kg; with CFLP mice it was 8.8 mg/kg; with mice [5], 1.9 mg/kg; in the data set on cats [6], 0.05 mg/kg. Besides, the LD50 in the data set “Acute toxicity in mice” (ip, read-out: LD50 i.p.) was around 50 mg/kg; in “Acute toxicity in mice” (po, read-out: LD50 p.o.) it was 75 to 100 mg/kg.
Take `CC(=O)N1N=C(c2ccc(N)cc2)c2cc3c(cc2CC1C)OCO3` (single isomer, unassigned; (-)) [Example 128, (-)-1-(4-Aminophenyl)-3-acetyl-4-methyl-7,8-methylenedioxy-3,4-dihydro-5H-2,3-benzodiazepine]: the half-maximal inhibitory concentration (IC50) came out at 7.8 µM in the data set on AMPA/kainate receptors, 1 µM in data set [1] and 2.7 µM in data set [2]. Moreover, the ED50 with male CFLP mice [3] (mice, p.o.) was 5.3 mg/kg; in the data set with male CFLP mice [4] (mice, p.o.), 16.8 mg/kg; with mice [5] (mice, i.p.), 2.3 mg/kg; with cats [6], 0.13 mg/kg. For the same compound, the “(DOPAC + HVA)/DA, %” value in the data set with mice [7] (% of saline group) is 144%. The “DA, %” value in the data set with mice [7] (% of saline group) came to 48%. In addition, in the data set on mice [7] (striatal dopamine turnover), the “(DOPAC + HVA)/DA, mean ± SE” value is on record as 0.36 ± 0.10. Further, the “DA, μg/g tissue, mean ± SE” value with mice [7] (striatal dopamine) turned out to be 7.17 ± 1.89 μg/g tissue. The median lethal dose (LD50) in “Acute toxicity in mice” (ip, read-out: LD50 i.p.) was 73.5 mg/kg; in “Acute toxicity in mice” (po, read-out: LD50 p.o.), around 100 mg/kg.
With `CC(=O)N1N=C(c2ccc(N)cc2)c2cc3c(cc2CC1C)OCO3` (centres unmarked) [Example 15 (16), 1-(4-Aminophenyl)-3-acetyl-4-methyl-7,8-methylenedioxy-3,4-dihydro-5H-2,3-benzodiazepine], the IC50 in the data set with AMPA/kainate receptors is 24.8 µM; with AMPA receptors, 21.5 µM; in data set [1], 3.7 µM; in [2], 5.1 µM. Besides, the “Inhibition of induced field potentials in % of control” value is recorded as 30% in the data set on AMPA receptors (concentration 10 μM), 47% with AMPA receptors (concentration 20 μM), 69% with AMPA receptors (concentration 40 μM) and 82% with AMPA receptors (concentration 80 μM). In the data set on AMPA receptor (2-minute perfusion with 10 μM of quisqualate, corresponding concentrations), the “Activity relative to the reference compound GYKI 52466 in inhibiting the response to quisqualate” value was “twice as active”. In addition, the “Effect on the responses induced by NMDA” value in the data set on NMDA [8] is recorded as “failed to affect”. The ED50 in the data set on male CFLP mice [3] (mice, p.o.) was 12 mg/kg; with male CFLP mice [4] (mice, p.o.), 46.8 mg/kg; in the data set with male CFLP mice [9], above 200 mg/kg; in the data set with male CFLP mice [10] (mice, p.o.), 16 mg/kg; with male CFLP mice [11], 45 mg/kg; with male CFLP mice [12] (mice, p.o.), 9 mg/kg. Also, the 50% effective dose (ED50) in the data set with CFLP mice (mice, i.p.) is 23.5 mg/kg; in the data set on mice [5] (mice, i.p.), 3.7 mg/kg; in the data set with cats [6], 0.36 mg/kg; in the data set with cats [13] (setting [17]) it was above 1.6 mg/kg; with cats [13] (setting [18]), above 1.6 mg/kg; with cats [13] (setting [19]), 0.69 mg/kg. In the data set on cats [13] (setting [20]), the ED50 is 0.77 mg/kg. The LD50 in “Acute toxicity in mice” (ip, read-out: LD50 i.p.) is 127 mg/kg; in “Acute toxicity in mice” (po, read-out: LD50 p.o.), 130 mg/kg.
With `CC1=NN=C(c2ccc(N)cc2)c2cc3c(cc2C1)OCO3` [GYKI 52466, 1-(4-aminophenyl)-4-methyl-7,8-methylenedioxy-5H-2,3-benzodiazepine, reference compound], the half-inhibitory concentration (IC50) in the data set on AMPA/kainate receptors is 31.7 µM; in the data set with AMPA receptors it was 30 µM; in data set [1] it was 6.3 µM; in data set [2], 9.5 µM. The “Inhibition of induced field potentials in % of control” value in the data set on AMPA receptors (concentration 10 μM) was determined as 22%; with AMPA receptors (concentration 20 μM) it was 39%; in the data set with AMPA receptors (concentration 40 μM), 62%; in the data set on AMPA receptors (concentration 80 μM), 73%. Moreover, the “Inhibition of DC-potential changes induced by perfusion of quisqualate” value with AMPA receptor (concentration range of 10-50 μM) is reported as “dose-dependently inhibited”. Also, the “Effect on the responses induced by NMDA” value with NMDA [8] is recorded as “failed to affect”. Further, the “NMDA antagonist effect, times weaker than AMPA antagonist effect” value with NMDA [14] is recorded as at least 10 times. Further, the ED50 in the data set on male CFLP mice [3] came out at 38 mg/kg; with male CFLP mice [4], 115 mg/kg; in the data set on male CFLP mice [9] it was 87 mg/kg; in the data set on male CFLP mice [10] it was 73 mg/kg; in the data set with male CFLP mice [11], 70 mg/kg; in the data set with male CFLP mice [12] it was 43 mg/kg. The 50% effective dose (ED50) was 47 mg/kg in the data set on CFLP mice; 24 mg/kg in the data set on mice [5]; 0.9 mg/kg with cats [6]; above 4 mg/kg with cats [13] (setting [17]); above 4 mg/kg in the data set on cats [13] (setting [18]); 2.2 mg/kg in the data set on cats [13] (setting [19]). The ED50 with cats [13] (setting [20]) was found to be 2.3 mg/kg. In addition, in data set [15], the “Displacement of [3H]-AMPA from specific binding sites” value is on record as “displace neither”. In addition, in data set [16], the “Displacement of [3H]-kainate from specific binding sites” value is “displace neither”.
